Measured values as given in US8541670B2, “Compositions and methods for inhibiting tumor cell growth” (priority 2007, dated 2013).
Where no end group is shown, it is not given here. red fluorescent dye = not defined here

What was measured:
[1] = test system: AKT; assay: In vivo AKT inhibition in brain after stereotactic injection (immunofluorescence, western blot); set-up: species or system mouse
Protocol: As a specific substrate, the phosphorylation level of GSK-3[…] at Ser-9 was also evaluated. […] The decrease was specific to the AKT phosphorylation site on GSK-3[…] at Ser-9, since a change in the phosphorylation level of GSK-3[…] at Tyr-216 or GSK-3[…] at Tyr-279 was not observed. Moreover, the in vivo reduction of the phosphorylation of AKT substrates was more obvious at the injection site, since a significant change in the phosphorylation of AKT substrates in the frontal cortex or cerebellum between the two hemispheres was not observed. […] To test the specificity/selectivity of ZaTa as the inhibitor of AKT1 versus the other major kinases, a series of in vitro kinase assays was performed at IC50 for AKT1 and at ten times higher concentrations. A panel of the following 32 kinases was first tested in vitro using the active form of each kinase and a specific substrate: AKT2, AKT3, PKA, PKC[…], PKC, PI3K[…], PI3K[…], PI3K, SGK, PAK2, PAK3, SAPK2/p38, Abl, CaMKII, CDK1/cyclinB, CDK5/p35, CK1, CK2, CSK, GSK3[…], GSK3[…], JNK1[…]1, MAPK1, p70S6K, PDGFR[…], PDGFR[…], PDK1, PKG1[…], TrkB, JAK2, JAK3, and Syk. […] However, at ten times higher concentration, ZaTa inhibited AKT2 (63%), PI3K[…] (72%), p70S6K (64%), SGK (73%), PAK3 (83%), JAK3 (79%), TrkB (84%), and Abl (42%). To confirm the in vitro inhibitory effect on these kinases in cells, a cell-based assay was used to determine the effect of labeled ZaTa on the phosphorylation levels of well-known intracellular substrates for each kinase (Zipfel, et al. (2004) Curr. Biol. 14:1222-1231; Wang, et al. (2003) Arch. Biochem. Biophys. 410:7-15; King, et al. (1998) Nature 396:180-183; Rangone, et al. (2004) Eur. J. Neurosci. 19:273-279; Middlemas, et al. (1994) J. Biol. Chem. 269:5458-5466; Huang, et al. (1999) J. Biol. Chem. 274:7870-7878). […] Given that most of the above-listed kinases have no known inhibitor, it is contemplated that the ZaTa could be used at micromolar concentrations in in vitro studies to inhibit the activity of the select kinases.
These different localization patterns of ZaTa within the cell were usually accompanied with redistribution of AKT to the site of ZaTa.
N2a cells were cultured in Dulbecco's Modified Eagle's Medium (DMEM) and OPTI-MEM® media (50% of each; GIBCO-BRL, Gaithersberg, Md.) supplemented with 5% fetal bovine serum (FBS; SIGMA, St. Louis, Mo.), penicillin-streptomycin and L-Glutamine (GIBCO-BRL). Cells (˜1×10^6) or frontal cortex of mouse brain (0.05-0.1 gram) were homogenized in ice cold lysate buffer (0.25 M Tris, pH 7.5) containing protease inhibitors (Protease Inhibitor Cocktail tablets; Boehringer Mannheim, Mannheim, Germany) and phosphatase inhibitors (Phosphatase Inhibitor Cocktails I & II; SIGMA) and lysed through three cycles of freezing in liquid nitrogen and thawing in a 37° C. water bath. Protein concentration was measured using a commercially available protein assay (BIO-RAD, […].) protein assay and spectrometry at […]. Equal amounts of total protein were loaded on 4-12% gradient Bis-Tris gels, separated using the NUPAGE® system (INVITROGEN, Carlsbad, Calif.) and transferred onto nitrocellulose membrane. The membrane was probed with primary and secondary antibodies and signals were detected by chemiluminescence followed by autoradiography.
For immunofluorescence analysis of mouse brain, anaesthetized mice were perfused with PBS-buffered formalin, fixed overnight, placed in PBS, and stored at 4° C. VIBRATOME® sections, 50-μm thick, were cut in the coronal plane from the fronto-striatum brain region. […] The sections were blocked overnight using 2% normal goat sera in PBS with 0.3% TRITON™ X-100 and then incubated for 48 hours in blocking solution with 1:500 dilution of anti-phospho-AKT substrate antibody. Sections were washed four times for 15 minutes in PBS, incubated with blocking solution containing goat anti-rabbit ALEXA®-568 secondary antibody (MOLECULAR PROBES, Eugene, Oreg.) for 48 hours, and washed four times for 15 minutes in PBS. […]

[2] = target: T1, SGK (Homo sapiens, UniProt O00141); assay: In vitro kinase assay SGK; format: biochemical; conditions: ten times higher concentration than 0.1 μM
T1 construct: endogenous in cells
T1 sequence (O00141 1-431): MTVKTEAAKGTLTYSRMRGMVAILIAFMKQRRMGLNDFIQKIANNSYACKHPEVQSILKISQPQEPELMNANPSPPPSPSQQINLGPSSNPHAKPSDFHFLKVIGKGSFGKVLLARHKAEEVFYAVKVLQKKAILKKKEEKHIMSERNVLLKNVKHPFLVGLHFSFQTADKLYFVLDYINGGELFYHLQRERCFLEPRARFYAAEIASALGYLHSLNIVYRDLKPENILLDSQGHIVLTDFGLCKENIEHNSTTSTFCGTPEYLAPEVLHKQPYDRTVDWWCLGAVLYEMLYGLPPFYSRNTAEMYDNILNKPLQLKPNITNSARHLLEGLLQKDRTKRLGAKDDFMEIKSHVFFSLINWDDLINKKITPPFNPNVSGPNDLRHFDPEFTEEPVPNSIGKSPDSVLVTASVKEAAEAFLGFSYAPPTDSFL
Protocol: As a specific substrate, the phosphorylation level of GSK-3[…] at Ser-9 was also evaluated. […] The decrease was specific to the AKT phosphorylation site on GSK-3[…] at Ser-9, since a change in the phosphorylation level of GSK-3[…] at Tyr-216 or GSK-3[…] at Tyr-279 was not observed. Moreover, the in vivo reduction of the phosphorylation of AKT substrates was more obvious at the injection site, since a significant change in the phosphorylation of AKT substrates in the frontal cortex or cerebellum between the two hemispheres was not observed. […] To test the specificity/selectivity of ZaTa as the inhibitor of AKT1 versus the other major kinases, a series of in vitro kinase assays was performed at IC50 for AKT1 and at ten times higher concentrations. A panel of the following 32 kinases was first tested in vitro using the active form of each kinase and a specific substrate: AKT2, AKT3, PKA, PKC[…], PKC, PI3K[…], PI3K[…], PI3K, SGK, PAK2, PAK3, SAPK2/p38, Abl, CaMKII, CDK1/cyclinB, CDK5/p35, CK1, CK2, CSK, GSK3[…], GSK3[…], JNK1[…]1, MAPK1, p70S6K, PDGFR[…], PDGFR[…], PDK1, PKG1[…], TrkB, JAK2, JAK3, and Syk. […] However, at ten times higher concentration, ZaTa inhibited AKT2 (63%), PI3K[…] (72%), p70S6K (64%), SGK (73%), PAK3 (83%), JAK3 (79%), TrkB (84%), and Abl (42%). […]

[3] = target: TrkB (Homo sapiens, UniProt Q16620); assay: Cell-based kinase assay, phosphorylation of intracellular substrate (Tyr-783 PLC)
Protocol: (§1) As a specific substrate, the phosphorylation level of GSK-3[…] at Ser-9 was also evaluated. […] The decrease was specific to the AKT phosphorylation site on GSK-3[…] at Ser-9, since a change in the phosphorylation level of GSK-3[…] at Tyr-216 or GSK-3[…] at Tyr-279 was not observed. Moreover, the in vivo reduction of the phosphorylation of AKT substrates was more obvious at the injection site, since a significant change in the phosphorylation of AKT substrates in the frontal cortex or cerebellum between the two hemispheres was not observed. […] To test the specificity/selectivity of ZaTa as the inhibitor of AKT1 versus the other major kinases, a series of in vitro kinase assays was performed at IC50 for AKT1 and at ten times higher concentrations. […]
(§2) Phosphorylation sites for kinases analyzed herein included Ser-235/236 S6 (a substrate for p70S6K), Tyr-207 CRKL (a substrate for Abl; Zipfel, et al. (2004) supra), Ser-241 PDK1 (a substrate for PI3K), Tyr-1022/1023 JAK1 (a substrate for JAK3; Wang, et al. (2003) supra), Ser-421 Huntingtin (a substrate for SGK; Rangone, et al. (2004) supra), Tyr-783 PLC (a substrate for TrkB; Middlemas, et al. (1994) supra), and Ser-338 cRaf (a substrate for PAK3; King, et al. (1998) supra).

[4] = target: Abl (Homo sapiens, UniProt P00519); assay: Cell-based kinase assay, phosphorylation of intracellular substrate (Tyr-207 CRKL)
Chain of Abl (P00519 whole entry, species assumed): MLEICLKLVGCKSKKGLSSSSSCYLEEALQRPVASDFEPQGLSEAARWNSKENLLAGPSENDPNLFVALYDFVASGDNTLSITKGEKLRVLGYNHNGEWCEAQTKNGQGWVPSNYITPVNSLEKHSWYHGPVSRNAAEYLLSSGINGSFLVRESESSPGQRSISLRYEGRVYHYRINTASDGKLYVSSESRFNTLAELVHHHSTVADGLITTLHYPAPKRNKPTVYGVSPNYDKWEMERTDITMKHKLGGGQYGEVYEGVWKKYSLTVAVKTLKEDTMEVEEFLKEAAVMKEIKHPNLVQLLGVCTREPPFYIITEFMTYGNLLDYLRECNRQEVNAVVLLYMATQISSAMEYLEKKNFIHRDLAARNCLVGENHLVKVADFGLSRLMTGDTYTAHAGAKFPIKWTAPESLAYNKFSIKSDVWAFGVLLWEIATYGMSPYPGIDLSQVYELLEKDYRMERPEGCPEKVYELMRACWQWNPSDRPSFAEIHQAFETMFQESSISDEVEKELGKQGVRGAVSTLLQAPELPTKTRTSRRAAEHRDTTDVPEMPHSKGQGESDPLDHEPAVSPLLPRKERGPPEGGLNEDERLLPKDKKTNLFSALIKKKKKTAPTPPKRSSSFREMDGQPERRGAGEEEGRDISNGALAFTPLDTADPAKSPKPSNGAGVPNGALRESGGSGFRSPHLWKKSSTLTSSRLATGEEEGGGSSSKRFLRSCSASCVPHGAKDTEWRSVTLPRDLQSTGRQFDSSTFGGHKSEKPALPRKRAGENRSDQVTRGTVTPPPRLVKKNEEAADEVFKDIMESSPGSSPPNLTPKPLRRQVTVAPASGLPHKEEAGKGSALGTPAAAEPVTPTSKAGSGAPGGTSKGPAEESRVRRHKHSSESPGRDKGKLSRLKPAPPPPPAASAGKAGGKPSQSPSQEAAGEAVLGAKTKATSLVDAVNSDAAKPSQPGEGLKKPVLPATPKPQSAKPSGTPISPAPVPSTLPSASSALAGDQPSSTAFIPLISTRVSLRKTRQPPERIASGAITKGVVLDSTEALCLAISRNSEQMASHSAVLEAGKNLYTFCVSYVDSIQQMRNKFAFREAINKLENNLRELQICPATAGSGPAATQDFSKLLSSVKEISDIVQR
Protocol: as §1, §2

Substance	change in phosphorylation of AKT substrates in frontal cortex or cerebellum ([1]; away from striatal injection site, between hemispheres)	phosphorylation level of AKT substrates in vivo, western blot ([1]; one hour after stereotactic injection)	phosphorylation level of AKT substrates in striatum, immunofluorescence ([1]; stereotactic injection, versus DMSO-injected hemisphere)	change in phosphorylation level of GSK-3[…] at Tyr-216 or Tyr-279 ([1]; striatum)	phosphorylation level of GSK-3[…] at Ser-9 ([1]; striatum, versus DMSO-injected hemisphere)	inhibition of SGK [2]	phosphorylation level of AKT substrates in ZaTa-positive cells ([1]; stereotactic injection into frontal cortex)	inhibition of TrkB in cells [3]	inhibition of Abl in cells [4]
AKRVKGRTWTLCGTPEY [ZaTa]	not observed	significant decrease	decrease in the phosphorylation level of AKT substrates	not observed	specific reduction	73%	–	–	–
labeled ZaTa: ZaTa peptide labeled with a red fluorescent dye at its N-terminus ({red fluorescent dye}-AKRVKGRTWTLCGTPEY; reading uncertain)	–	–	–	–	–	–	specific reduction in phosphorylation level of AKT substrates	did not cause inhibition	did not cause inhibition
